Experimental data as given in the supplement of paper PMC11208160.

Assay: recombinant UMI read abundance after kanamycin selection (control-corrected) (log10(CPM+1)); higher = more efficient recombination; extreme values may be limits of the assay; sequences stand for … in AGTGCAGAGAAAATCGGCCAGTTTTCTCTGCCTGCAGTCCGCATGCCGTGGGACCCCTTGGGTTCTAACCTGTTGCCTAGATTTATGCAGCGGACTGCCTTTCTCCCAAAGTGATAAACCGG…AGGTTGGTTTCACT; site = the 11-nt donor
Outline: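 Under IPTG (0.07 mM) plus kanamycin, or without selection, Escherichia coli carrying a UMI-tagged donor and donor-binding-loop pair library and a target plasmid for the IS621 bridge recombinase were plated in two replicates. Recombinant UMIs were PCR-amplified across the donor–target junction and sequenced. Counts were converted to CPM, averaged over replicates, scaled by control-derived factors and reported as log10(CPM+1).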
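Also: IS621 bridge recombinase in Escherichia coli cells against a fixed T5 target plasmid.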

“TGATGAGCATGGACCGGTTTTCCCGGTAATCCGTATTTGGG (site TTATGAGCTCC)” and “TGACAACCATGGACCGGTTTTCCCGGTAATCCGTATTTGCC (site TGACAACCTGG)” are within 0.2 log units of each other in “recombinant UMI read abundance (log10)” value: 0.0217 for the first, 0 for the second.

“CCCTTCGCATGGACCGGTTTTCCCGGTAATCCGTATTTGGG (site CCCTTCCCTCC)” and “CTTCTCTCATGGACCGGTTTTCCCGGTAATCCGTATTTGTA (site CTTCTCACTTA)” are within 0.2 log units of each other in “recombinant UMI read abundance (log10)” value: 0 for the first, 0.0108 for the second.

Compared with “GAACGTGCATGGACCGGTTTTCCCGGTAATCCGTATTTGTC (site GAACGTGCTGA)”, “CCGAATTCATGGACCGGTTTTCCCGGTAATCCGTATTTGTT (site CCGAATTCTAA)” is lower in “recombinant UMI read abundance (log10)” value: 2.1 for the first, 0 for the second.

Going from “AATGTAACATGGACCGGTTTTCCCGGTAATCCGTATTTGCG (site AATGTAACTCG)” to “CCGAATTCATGGACCGGTTTTCCCGGTAATCCGTATTTGTT (site CGGAATCCTAA)”, the “recombinant UMI read abundance (log10)” value falls from 1.48 to 0.00782.

First: TAGGTTACATGGACCGGTTTTCCCGGTAATCCGTATTTGAT (site TAGGTTACTAT)
Second: GTTCCGGCATGGACCGGTTTTCCCGGTAATCCGTATTTGCC (site GTTCCGGCTGG)
The “recombinant UMI read abundance (log10)” value of the first is higher: 1.79 for the first, 0 for the second.

“CAAGCGCCATGGACCGGTTTTCCCGGTAATCCGTATTTGGG (site CAAGCGCCTCG)” and “ACATTACCATGGACCGGTTTTCCCGGTAATCCGTATTTGCA (site ACATTACCTTG)” are within 0.2 log units of each other in “recombinant UMI read abundance (log10)” value: 0.0252 for the first, 0 for the second.

“GATTGTACATGGACCGGTTTTCCCGGTAATCCGTATTTGGG (site GATTGTACTCC)” and “AACCGTCCATGGACCGGTTTTCCCGGTAATCCGTATTTGAT (site GACCGTCCTAT)” are within 0.2 log units of each other in “recombinant UMI read abundance (log10)” value: 0.0205 for the first, 0.00938 for the second.

“GACATACCATGGACCGGTTTTCCCGGTAATCCGTATTTGGT (site GACAGACCTAC)” and “CAAGCGCCATGGACCGGTTTTCCCGGTAATCCGTATTTGTG (site CAAACGCCTCA)” are within 0.2 log units of each other in “recombinant UMI read abundance (log10)” value: 0 for the first, 0.0285 for the second.

Going from “ATCAATACATGGACCGGTTTTCCCGGTAATCCGTATTTGAC (site ATCCATACTGT)” to “AACGGGGCATGGACCGGTTTTCCCGGTAATCCGTATTTGCG (site AACGGGGCTCG)”, the “recombinant UMI read abundance (log10)” value rises from 0 to 1.19.

“TTACTGTCATGGACCGGTTTTCCCGGTAATCCGTATTTGGA (site TTACTGTCTTC)” and “AATATAACATGGACCGGTTTTCCCGGTAATCCGTATTTGCT (site AATGTAACTAG)” are within 0.2 log units of each other in “recombinant UMI read abundance (log10)” value: 1.38 for the first, 1.47 for the second.

Going from “ATTGAGACATGGACCGGTTTTCCCGGTAATCCGTATTTGTT (site ATTGAGACTAG)” to “CGGAATCCATGGACCGGTTTTCCCGGTAATCCGTATTTGTT (site CGGTATACTAA)”, the “recombinant UMI read abundance (log10)” value falls from 2.02 to 0.0163.

“AACGTGTCATGGACCGGTTTTCCCGGTAATCCGTATTTGAC (site AAAGTGTCTGT)” and “CGGAATCCATGGACCGGTTTTCCCGGTAATCCGTATTTGTT (site CGGCATCCTCA)” are within 0.2 log units of each other in “recombinant UMI read abundance (log10)” value: 0 for the first, 0.00889 for the second.

Compared with “GCGAAGACATGGACCGGTTTTCCCGGTAATCCGTATTTGCT (site GCGAAAACTAG)”, “GTTAGAACATGGACCGGTTTTCCCGGTAATCCGTATTTGGC (site GTTTGAACTGC)” is lower in “recombinant UMI read abundance (log10)” value: 1.01 for the first, 0 for the second.

Compared with “CGATCATCATGGACCGGTTTTCCCGGTAATCCGTATTTGTT (site CGATCATCTAG)”, “TAAGATACATGGACCGGTTTTCCCGGTAATCCGTATTTGCT (site TAAGATACTAG)” is higher in “recombinant UMI read abundance (log10)” value: 0 for the first, 2.11 for the second.

Going from “GACAAACCATGGACCGGTTTTCCCGGTAATCCGTATTTGGT (site GACAAACCTCC)” to “CTTCTGTCATGGACCGGTTTTCCCGGTAATCCGTATTTGTA (site CTTCTGTCTTA)”, the “recombinant UMI read abundance (log10)” value rises from 0.0384 to 2.01.

“CAAACGCCATGGACCGGTTTTCCCGGTAATCCGTATTTGTG (site CAACCGCCTCA)” and “CTAAGTCCATGGACCGGTTTTCCCGGTAATCCGTATTTGGA (site CTAAGTCCTTC)” are within 0.2 log units of each other in “recombinant UMI read abundance (log10)” value: 0.033 for the first, 0.16 for the second.
